Test results as given in patent US10023565B2, “N,N′ substituted piperidinamine compounds, and preparation method and usage thereof” (Institute of Pharmacology and Toxicology Academy of …, priority 2013, dated 2018).

Tests used:
Assay in all cases: Antitumor bioactivity evaluation, breast cancer cells (ATPlite)
BT/Lap^R1.0 = type: cell-based, human; settings: Homo sapiens; test sample 5 μM, 72 hours; read-out: Inhibitory Rate % BT/Lap^R1.0
Procedure: (§1) Antitumor bioactivity evaluation of the compounds of Examples according to the method described below
(§2) Cells plating: a 100 mm culture dish with overgrown adherent cells was digested with 1 ml 0.25% trypsin (GIBCO) at 37° C. for 5 min, and the reaction was terminated with 2 ml culture medium (containing 10% FBS, GIBCO). The cells were scattered and collected, after counting, diluted to 1×10^5 cells/ml, and seeded into a 96-well plate at 50 μl/well, 5000 cells/well, excluding the peripheral circle of wells in which no cell was added, but PBS was added, 60 wells in total, and then incubated at 37° C. for 24 hours for adhering.
(§3) Addition of the compound and lapatinib: the test sample was diluted to a final concentration of 5 μM, and the culture medium with the corresponding compound solvent concentration was filled in the control well, the compound solvent concentration was kept consistent in each well, 5 parellel wells were set for each concentration, 25 μl each well, 25 μl culture medium (in combined group, 25 μl lapatinib was added till a final concentration of 1 μM) supplemented, followed by incubation at 37° C. for 72 hours.
(§4) Test after incubation at 37° C. for 72 hours: 50 μL of ATPlite kit substrate solution was added in each well, and vibrated for 3 min, followed by placing aside in darkness for 10 min, and then supernatant 100 μl/well was taken and placed on aluminescence test plate; the luminescence test plate that has been fully incubated was placed in a luminescence test instrument, to read luminescence value.
(§5) 1. Cell survival rate (%)=Experimental group RLU/control group RLU×100%. The experimental data were subjected to data analysis and processing by utilizing GraphPad software.

SK/Lap^R1.0 = type: cell-based; settings: Homo sapiens; test sample 5 μM, 72 hours; read-out: Inhibitory Rate % SKLap^R1.0
Procedure: as §1, §2, §3, §4, §5

MDA-MB-361 = type: cell-based; settings: Homo sapiens, test sample 5 μM, 72 hours, read-out: Inhibitory Rate % MDA-MB-361
Procedure: as §1, §2, §3, §4, §5

MDA-MB-453 = type: cell-based; settings: Homo sapiens, test sample 5 μM, 72 hours, read-out: Inhibitory Rate % MDA-MB-453
Procedure: as §1, §2, §3, §4, §5

BT474 = type: cell-based; settings: Homo sapiens, BT-474; test sample 5 μM, 72 hours; read-out: Inhibitory Rate % BT474
Procedure: as §1, §2, §3, §4, §5

SK-BR3 = type: cell-based; settings: Homo sapiens, SK-BR-3; test sample 5 μM, 72 hours; read-out: Inhibitory Rate % SK-BR3
Procedure: as §1, §2, §3, §4, §5

| Structure (SMILES) | inhibition at 5 µM (BT/Lap^R1.0) [%] | inhibition at 5 µM (SK/Lap^R1.0) [%] | inhibition at 5 µM (MDA-MB-361) [%] | inhibition at 5 µM (MDA-MB-453) [%] | inhibition at 5 µM (BT474) [%] | inhibition at 5 µM (SK-BR3) [%] |
| --- | --- | --- | --- | --- | --- | --- |
| CN(Cc1c(Cl)cccc1Cl)C1CCN(Cc2cnc(Cl)s2)CC1 [Example 24, N-methyl-N-(2,6-dichlorobenzyl)-N-{[1-(2-chlorothiazol-5-yl)methyl]piperidin-4-yl}amine] | 7.1 | 8.5 | 10.2 | 21.1 | 11.1 | 19 |
| CSc1ncc(CN2CCC(N(C)Cc3ccccc3C)CC2)s1 [Example 25, N-methyl-N-(2-methylbenzyl)-N-{[1-(2-methylthiothiazol-5-yl)methyl]piperidin-4-yl}amine] | 1.4 | 6.9 | 31.7 | 35.1 | 15.5 | 21.9 |
| CSc1ncc(CN2CCC(N(C)Cc3ccc(C)cc3)CC2)s1 [Example 26, N-methyl-N-(4-methylbenzyl)-N-{[1-(2-methylthiothiazol-5-yl)methyl]piperidin-4-yl}amine] | 66.7 | 12.1 | 38.3 | 67.1 | 68.3 | 49.6 |
| CSc1ncc(CN2CCC(N(C)Cc3cccc(F)c3)CC2)s1 [Example 27, N-methyl-N-(3-fluorobenzyl)-N-{[1-(2-methylthiothiazol-5-yl)methyl]piperidin-4-yl}amine] | 19.8 | 2.1 | 31.7 | 44.2 | 26.3 | 19.5 |
| CSc1ncc(CN2CCC(N(C)Cc3cccc(Cl)c3)CC2)s1 [Example 28, N-methyl-N-(3-chlorobenzyl)-N-{1-[(2-methylthiothiazol-5-yl)methyl]piperidin-4-yl}amine] | 36.1 | 7.3 | 31.1 | 62.3 | 44.9 | 26.7 |
| CSc1ncc(CN2CCC(N(C)Cc3ccc(F)cc3)CC2)s1 [Example 29, N-methyl-N-(4-fluorobenzyl)-N-{1-[(2-methylthiothiazol-5-yl)methyl]piperidin-4-yl}amine] | 50.5 | 11.7 | 32.8 | 67.4 | 54.4 | 40.9 |
| CSc1ncc(CN2CCC(N(C)Cc3ccc(Cl)c(Cl)c3)CC2)s1 [Example 30, N-methyl-N-(3,4-dichlorobenzyl)-N-{1-[(2-methylthiothiazol-5-yl)methyl]piperidin-4-yl}amine] | 67.1 | 10.1 | 42.1 | 69.9 | 62.6 | 42.4 |
| CSc1ncc(CN2CCC(N(C)Cc3c(F)cccc3Cl)CC2)s1 [Example 31, N-methyl-N-(2-fluoro-6-chlorobenzyl)-N-{1-[(2-methylthiothiazol-5-yl)methyl]piperidin-4-yl}amine] | 59.9 | 4.5 | 47.2 | 65.3 | 49.5 | 9.2 |
| CSc1ncc(CN2CCC(N(C)Cc3c(Cl)cccc3Cl)CC2)s1 [Example 32, N-methyl-N-(2,6-dichlorobenzyl)-N-{1-[(2-methylthiothiazol-5-yl)methyl]piperidin-4-yl}amine] | 54.9 | 26.8 | 45.2 | 63.7 | 54.9 | 24.3 |
| CSc1ncc(CN2CCC(N(C)Cc3ccc(Cl)cc3Cl)CC2)s1 [Example 33, N-methyl-N-(2,4-dichlorobenzyl)-N-{1-[(2-methylthiothiazol-5-yl)methyl]piperidin-4-yl}amine] | 66.3 | 40.4 | 36.3 | 72.4 | 70 | 37.8 |
| CSc1ncc(CN2CCC(N(C)Cc3cc(Cl)ccc3Cl)CC2)s1 [Example 34, N-methyl-N-(2,5-dichlorobenzyl)-N-{1-[(2-methylthiothiazol-5-yl)methyl]piperidin-4-yl}amine] | 34.4 | 11.4 | 25.4 | 59.4 | 42.3 | 23.3 |
